The values below come from patent US4959370A, “Alkaloids of marine origin” (priority 1989, dated 1990).

Experiment [1] deals with fourth larval stage of N. brasiliensis. The experiment is described as follows: In vitro anthelmintic activity against fourth larval stage (L4). The settings on record: 50 μg/ml, 37° C., seven days; for inhibition at 50 µg/mL: Nippostrongylus brasiliensis, 168 h. The experiment is classed as cell-based, Nippostrongylus brasiliensis. Here is the method: To obtain the fourth larval stage (L4) of Nippostrongylus brasiliensis, rats were inoculated with 6,500 to 6,750 N. brsiliensis third stage larvae subcutaneously. Seventy-two hours later the rats were sacrificed and the fourth stage larvae harvested. Compounds of Formula (I) were tested at 50 μg/mL against the fourth larval stage of N. brasiliensis at approximately 50 L4/well. This mixture was incubated at 37° C. for a total of seven days and then read for activity. Parameters used to determine drug activity were motility, viability, and the ability of fourth stage larvae to molt to the adult, i.e., cast formation. A compound was defined as active if (1) cast formation was reduced by 40 percent or more; or (2) viability and motility together were reduced 40 percent or more. | Compound B is a compound of Formula (I) where R is methyl. *Percent cast | reduction was determined by the following: | **Percent viability reduction was determined by the | following: | ***Percent motility reduction was a subjective evaluation

For experiment [2], the target named is T1, purified cloned reverse transcriptase (RT) (HIV-1 M:B_HXB2R, UniProt P04585).
T1 construct: mature chain of Gag-Pol polyprotein
The experiment can be described thus: In vitro reverse transcriptase inhibitory activity. It counts as biochemical. The settings on record: 400 μg/ml in 10 percent DMSO; 37° C., 0, 15, and 30 minutes; decrease in [3H] TTP incorporation vs controls. The protocol: The activity of purified cloned reverse transcriptase (RT), in the presence or absence of test compound, was assayed by measuring the incorporation of tritiated thymidine triphosphate ([^3 H] TTP) into a DNA chain using polyadenosine as the template and oligodeoxythymidine as the primer (Biochem. Pharm. 1987, Vol. 36, No. 24 pp. 4361-4362). The final concentration of the compounds tested for anti-RT activity was 400 μg/ml in 10 percent DMSO. Controls contained 10 percent DMSO only. After incubation at 37° C. for 0, 15, and 30 minutes, an aliquot of the incubation mixture was spotted on cellulose paper, washed in TCA-pyrophosphate solution to remove [^3 H] TTP, dried and analyzed for the rate of incorporation of radioactivity. The compounds which inhibited more than 50 percent of the enzyme activity, as determined by a decrease in radioactivity compared with controls, were considered active.

The mark [3] stands for this setting: cast formation (molt to adult), read-out: PERCENT REDUCTION COMPARED TO CONTROL: Casts.
Setting [4] is: subjective evaluation, read-out: PERCENT REDUCTION COMPARED TO CONTROL: Motility.

Like-named read-outs stand apart in the source and are kept apart here.

In the case of `CN(C)c1c2c(c3nc4ccccc4c4c3c1N=C4)NCCC2=O` [Compound B, plakinidine B], the “PERCENT REDUCTION COMPARED TO CONTROL: Viability” value in experiment [1] was found to be 100%. Also, the inhibition at 50 µg/mL in experiment [1] (setting [3]) and in experiment [1] (setting [4]) was 100% throughout.
As for `CNc1c2c(c3nc4ccccc4c4c3c1N=C4)NCCC2=O` [Compound A, plakinidine A], in experiment [1], the “PERCENT REDUCTION COMPARED TO CONTROL: Viability” value is given as 100%. Also, the inhibition at 50 µg/mL in experiment [1] (setting [3]) and in experiment [1] (setting [4]) was 100% in each case. Further, the inhibition at 400 µg/mL in experiment [2] stood at 83%.
